# From patent US6479033B1, “Antitumor cystostatic and contrast agent” (priority 1994, dated 2002)
# Tested on: Tumor
# Experiment: Tumor growth and contrasting agent in the liver after treatment (carboplatin, Spherex, gelatin foam)
# Assay type: in vivo
# Conditions: carboplatin encapsulated in SUV-PEG
# From the text: The following Table summarizes results obtained using carboplatin as the cytostatic drug encapsulated in SUV-PEG and Spherex gelatin foam as the starch particle.
smiles,measurement,value
"N.N.O=C([O-])C1(C(=O)[O-])CCC1.[Pt+2] [Carboplatin, carboplatin]",Tumor growth by a factor of (7 days after treatment),1.45 ± 0.96
